Read-outs that look alike come from different tables or passages of the source. Values belong to the compound of their own block, whether it stands above or below them.
How the values were obtained:
[1] = tested on: OATP2B1; settings: in vitro; cited from earlier work
[2] = tested on: OATP1A2; settings: in vitro; cited from earlier work
[3] = tested on: PEPT1; settings: Caco-2 cells; cited from earlier work
[4] = tested on: OATP1B1; settings: in vitro; cited from earlier work
[5] = cited from earlier work
[6] = Acute hemodynamic response to lisinopril; assay type: in vivo, human
[7] = assay type: in vivo, human; settings: for A e, amount excreted unchanged into urine over 24 hours / CL renal / AUC(0-t) / AUC(0-inf): geometric mean; for CL renal: plasma and urine, CLrenal; for AUC(0-inf): AUC0–∞
[8] = stated as similar for lisinopril and nadolol

Compound: (–)‐epicatechin gallate
inhibition of OATP2B1 activity [1]: have been shown to inhibit
inhibition of OATP1A2 activity [2]: have been shown to inhibit
inhibition of uptake transport of glycyl-sarcosine, a typical substrate of PEPT1 [3]: not inhibiting
inhibition of OATP1B1 activity [4]: have been shown to inhibit

decrease in AUC0-24 in the GTE phase compared with control phase ([7]; GTE vs control, P < 0.001): 69%
decrease in AUC0–∞ in the GTE phase compared with control phase ([7]; GTE vs control, P < 0.001): 67%
decrease in C max in the GTE phase compared with control phase ([7]; GTE vs control, P < 0.001): 71%
A e, amount excreted unchanged into urine over 24 hours ([7]; GTE): 0.54 mg
CL renal ([7]; both, human, po, 10 mg, GTE): 56.9 mL/min
CL renal ([7]; both, human, po, 10 mg, control (water)): 57.7 mL/min
Tmax ([7]; both, human, plasma, po, 10 mg): 6 h
AUC(0-t) ([7]; both, human, plasma, po, 10 mg, AUC0–24, GTE): 157 ng·h/mL
AUC(0-t) ([7]; both, human, plasma, po, 10 mg, AUC0–24, control (water)): 504 ng·h/mL
AUC(0-inf) ([7]; both, human, plasma, po, 10 mg, GTE): 186 ng·h/mL
AUC(0-inf) ([7]; both, human, plasma, po, 10 mg, control (water)): 554 ng·h/mL
A e, amount excreted unchanged into urine over 24 hours ([7]; control (water)): 1.75 mg
A e GMR (GTE/control) ([7]; geometric mean ratio GTE/control): 0.307
Compound: NCCCC[C@H](N[C@@H](CCc1ccccc1)C(=O)O)C(=O)N1CCC[C@H]1C(=O)O [lisinopril]
oral bioavailability [5]: 29%
oral bioavailability [5, 8]: ca. 30%
DBP ([6]; GTE phase, 6 hours after 10 mg oral lisinopril, mean ± SD, baseline 68 ± 10 mmHg): 55 ± 4 mmHg
mean maximum decrease of DBP from baseline ([6]; both phases, at 6 hours after the administration): about 20%
SBP and PR, control vs GTE phases ([6]; single oral dose 10 mg lisinopril): no differences
adverse events ([7]; ten subjects who completed the study, both phases): no adverse events

Compound: O=C(O[C@@H]1Cc2c(O)cc(O)cc2O[C@@H]1c1cc(O)c(O)c(O)c1)c1cc(O)c(O)c(O)c1 [EGCG, (–)‐epigallocatechin gallate]
inhibition of OATP2B1 activity [1]: have been shown to inhibit
inhibition of OATP1A2 activity [2]: have been shown to inhibit
inhibition of OATP1B1 activity [4]: have been shown to inhibit

Compound: CC(C)(C)NCC(O)COc1cccc2c1CC(O)C(O)C2 (stereo not drawn) [nadolol]
oral bioavailability [5, 8]: ca. 30%

Reference: article PMC7993260 (Clinical and Translational Science, 2020)
